From patent publication US11618743B2, “Herbicidal compounds” (SYNGENTA PARTICIPATIONS AG, priority 2017, dated 2023)

Key:
Experiment in all cases: Post-emergence efficacy, Method A
Type in all cases: in vivo
[1] = system: Echinochloa crus-galli (ECHCG); conditions: Application rate 500 g/Ha, evaluated after 13 days; for Control of weed species ECHCG after post-emergence application (100=total damage to plant; 0=no damage to plant): Method A; for Control of weed species after post-emergence application, ECHCG: 100=total damage to plant, 0=no damage
Experimental: (§1) Seeds of a variety of test species were sown in standard soil in pots. After cultivation for 14 days (post-emergence) under controlled conditions in a glasshouse (at 24/16° C., day/night; 14 hours light; 65% humidity), the plants were sprayed with an aqueous spray solution derived from the dissolution of the technical active ingredient formula (I) in a small amount of acetone and a special solvent and emulsifier mixture referred to as IF50 (11.12% Emulsogen EL360 TM+44.44% N-methylpyrrolidone+44.44% Dowanol DPM glycol ether), to create a 50 g/l solution which was then diluted to required concentration using 0.25% or 1% Empicol ESC70 (Sodium lauryl ether sulphate)+1% ammonium sulphate as diluent.
(§2) The test plants were then grown in a glasshouse under controlled conditions (at 24/16° C., day/night; 14 hours light; 65% humidity) and watered twice daily. After 13 days the test was evaluated (100=total damage to plant; 0=no damage to plant).
(§3) Ipomoea hederacea (IPOHE), Euphorbia heterophylla (EPHHL), Chenopodium album (CHEAL), Amaranthus palmeri (AMAPA), Lolium perenne (LOLPE), Digitaria sanguinalis (DIGSA), Eleusine indica (ELEIN), Echinochloa crus-galli (ECHCG), Setaria faberi (SETFA)

Lolium perenne (LOLPE) = conditions: Application rate 500 g/Ha, evaluated after 13 days; for Control of weed species LOLPE after post-emergence application (100=total damage to plant; 0=no damage to plant): Method A; for Control of weed species after post-emergence application, LOLPE: 100=total damage to plant, 0=no damage
Experimental: as §1, §2, §3

Setaria faberi (SETFA) = conditions: Application rate 500 g/Ha, evaluated after 13 days; for Control of weed species SETFA after post-emergence application (100=total damage to plant; 0=no damage to plant): Method A; for Control of weed species after post-emergence application, SETFA: 100=total damage to plant, 0=no damage
Experimental: as §1, §2, §3

[2] = system: Amaranthus palmeri (AMAPA); conditions: Application rate 500 g/Ha, evaluated after 13 days; for Control of weed species after post-emergence application, AMAPA: 100=total damage to plant, 0=no damage; for Control of weed species AMAPA after post-emergence application (100=total damage to plant; 0=no damage to plant): Method A
Experimental: as §1, §2, §3

[3] = system: Chenopodium album (CHEAL); conditions: Application rate 500 g/Ha, evaluated after 13 days; for Control of weed species after post-emergence application, CHEAL: 100=total damage to plant, 0=no damage; for Control of weed species CHEAL after post-emergence application (100=total damage to plant; 0=no damage to plant): Method A
Experimental: as §1, §2, §3

[4] = system: Digitaria sanguinalis (DIGSA); conditions: Application rate 500 g/Ha, evaluated after 13 days; for Control of weed species after post-emergence application, DIGSA: 100=total damage to plant, 0=no damage; for Control of weed species DIGSA after post-emergence application (100=total damage to plant; 0=no damage to plant): Method A
Experimental: as §1, §2, §3

Eleusine indica (ELEIN) = conditions: Application rate 500 g/Ha, evaluated after 13 days; for Control of weed species after post-emergence application, ELEIN: 100=total damage to plant, 0=no damage; for Control of weed species ELEIN after post-emergence application (100=total damage to plant; 0=no damage to plant): Method A
Experimental: as §1, §2, §3

[5] = system: Euphorbia heterophylla (EPHHL); conditions: Application rate 500 g/Ha, evaluated after 13 days; for Control of weed species after post-emergence application, EPHHL: 100=total damage to plant, 0=no damage; for Control of weed species EPHHL after post-emergence application (100=total damage to plant; 0=no damage to plant): Method A
Experimental: as §1, §2, §3

[6] = system: Ipomoea hederacea (IPOHE); conditions: Application rate 500 g/Ha; evaluated after 13 days; 100=total damage to plant, 0=no damage
Experimental: as §1, §2, §3

Structure (SMILES)	Control of weed species ECHCG after post-emergence application (100=total damage to plant; 0=no damage to plant) [1]	Control of weed species LOLPE after post-emergence application (100=total damage to plant; 0=no damage to plant) (Lolium perenne (LOLPE))	Control of weed species SETFA after post-emergence application (100=total damage to plant; 0=no damage to plant) (Setaria faberi (SETFA))	Control of weed species after post-emergence application, AMAPA [2]	Control of weed species after post-emergence application, CHEAL [3]	Control of weed species after post-emergence application, DIGSA [4]	Control of weed species after post-emergence application, ECHCG [1]	Control of weed species after post-emergence application, ELEIN (Eleusine indica (ELEIN))	Control of weed species after post-emergence application, EPHHL [5]	Control of weed species after post-emergence application, SETFA (Setaria faberi (SETFA))	Control of weed species AMAPA after post-emergence application (100=total damage to plant; 0=no damage to plant) [2]	Control of weed species CHEAL after post-emergence application (100=total damage to plant; 0=no damage to plant) [3]	Control of weed species DIGSA after post-emergence application (100=total damage to plant; 0=no damage to plant) [4]	Control of weed species ELEIN after post-emergence application (100=total damage to plant; 0=no damage to plant) (Eleusine indica (ELEIN))	Control of weed species EPHHL after post-emergence application (100=total damage to plant; 0=no damage to plant) [5]	Control of weed species after post-emergence application, IPOHE [6]	Control of weed species after post-emergence application, LOLPE (Lolium perenne (LOLPE))
O=C(O)CC[n+]1ccc(-c2ncccn2)cn1.[Cl-] [Compound A26, 3-(4-pyrimidin-2-ylpyridazin-1-ium-1-yl)propanoic Acid Chloride]	100	90	100	–	–	–	–	–	–	–	–	–	–	–	–	–	–
O=C(O)CC[n+]1ccc(-c2ncccn2)cn1.O=C([O-])C(F)(F)F [Compound A125, 3-(4-pyrimidin-2-ylpyridazin-1-ium-1-yl)propanoic acid 2,2,2-trifluoroacetate]	–	90	–	–	–	–	–	–	–	–	–	–	–	–	–	–	–
O=C([O-])C(F)(F)F.OCCC[n+]1ccc(-c2ncccn2)cn1 [Compound A206]	–	–	–	60	90	20	20	10	60	10	–	–	–	–	–	–	–
O=C(O)C(O)C[n+]1ccc(-c2ncccn2)cn1.O=C([O-])C(F)(F)F (stereo not drawn) [Compound A180]	–	–	–	100	90	60	70	90	80	70	–	–	–	–	–	–	–
O=C(O)CC[n+]1ccc(-c2cc(C(F)(F)F)ncn2)cn1.O=C([O-])C(F)(F)F [Compound A119]	30	–	40	–	–	–	–	–	–	–	100	100	40	30	70	–	–
COC(=O)C(C)[n+]1ccc(-c2ncccn2)cn1.O=C([O-])C(F)(F)F (stereo not drawn) [Compound A192]	–	–	–	90	60	30	30	30	40	20	–	–	–	–	–	–	–
O=C(O)CC[n+]1ccc(-c2cnc(C(F)(F)F)cn2)cn1.O=C([O-])C(F)(F)F [Compound A121]	40	–	30	–	–	–	–	–	–	–	100	80	40	20	80	–	–
CC(CC(=O)O)[n+]1ccc(-c2ccncn2)cn1.O=C([O-])C(F)(F)F (stereo not drawn) [Compound A172]	–	–	–	30	60	80	50	70	50	50	–	–	–	–	–	–	–
Nc1cc(-c2cc[n+](CCC(=O)O)nc2)ccn1.O=C([O-])C(F)(F)F [Compound A210]	–	–	–	70	10	60	10	20	10	30	–	–	–	–	–	–	–
O=C(O)CC[n+]1ccc(-c2ncc(F)cc2F)cn1.O=C([O-])C(F)(F)F [Compound A144]	20	–	20	–	–	–	–	–	–	–	20	10	30	20	20	–	–
O=C(O)CC[n+]1ccc(-c2ccc(C(F)(F)F)nn2)cn1.O=C([O-])C(F)(F)F [Compound A126]	80	–	100	–	–	–	–	–	–	–	100	80	80	90	100	–	–
O=C(O)CC[n+]1ccc(-c2ncc(C(F)(F)F)cn2)cn1.O=C([O-])C(F)(F)F [Compound A129]	90	–	60	–	–	–	–	–	–	–	70	50	60	40	70	–	–
CCOP(=O)(C[n+]1ccc(-c2ncccn2)cn1)OCC.O=C([O-])C(F)(F)F [Compound A230, 1-(diethoxyphosphorylmethyl)-4-pyrimidin-2-yl-pyridazin-1-ium 2,2,2-trifluoroacetate]	–	–	–	50	60	70	60	10	–	50	–	–	–	–	–	20	0
CCOP(=O)(O)CCC[n+]1ccc(-c2ncccn2)cn1 [Compound A232]	–	–	–	100	90	90	100	50	–	80	–	–	–	–	–	0	20
O=C(O)CC[n+]1ccc(-c2ccnc(O)n2)cn1.O=C([O-])C(F)(F)F [Compound A86]	20	–	40	–	–	–	–	–	–	–	30	40	30	10	50	–	–
CC(C(=O)OC(C)(C)C)[n+]1ccc(-c2ncccn2)cn1.O=C([O-])C(F)(F)F (stereo not drawn) [Compound A193]	–	–	–	70	60	30	10	30	60	10	–	–	–	–	–	–	–
CCOC(=O)CC[n+]1ccc(-c2ncccn2)cn1.O=C([O-])C(F)(F)F [Compound A82]	30	–	60	–	–	–	–	–	–	–	70	80	30	60	40	–	–
